Results taken from patent publication US8846912B2, “Tartrate salts of quinazoline based EGFR inhibitors containing a zinc binding moiety” (Curis, Inc., priority 2007, dated 2014).
Where two headings read alike, the source gives them in different places.

Key:
[1] = tested on: A549 NSCLC Xenograft; assay: A549 NSCLC xenograft model; format: in vivo; conditions: FIG. 11A, 11B
[2] = tested on: Breast_SkBr3; assay: Cell proliferation assay (ATPlite); format: cell-based; conditions: Homo sapiens, SK-BR-3; SKBr3, Breast carcinoma (Table D); read-out: IC50 in cancer cell line
Description: (§1) Cell Proliferation Assay:
(§2) Cancer cell lines were plated at 5,000 to 10,000 per well in 96-well flatted bottomed plates with various concentration of compounds. […] Growth inhibition was accessed by adenosine triphosphate (ATP) content assay using Perkin Elmer ATPlite kit. ATPlite is an ATP monitoring system based on firefly luciferase. Briefly, 25 μl of mammalian cell lysis solution was added to 50 μl of phenol red-free culture medium per well to lyse the cells and stabilize the ATP. 25 μl of substrate solution was then added to the well and subsequently the luminescence was measured.

[3] = tested on: Breast_MCF7; assay: Cell proliferation assay (ATPlite); format: cell-based; conditions: Homo sapiens, MCF7; MCF-7, Breast adenocarcinoma (Table D); read-out: IC50 in cancer cell line
Description: as §1, §2

[4] = tested on: MDA-MB-231 Breast adenocarcinoma; assay: Cell proliferation assay (ATPlite); format: cell-based; conditions: Homo sapiens; MDA-MB-231, Breast adenocarcinoma (Table D); read-out: IC50 in cancer cell line
Description: as §1, §2

[5] = tested on: Colon_HCT116; assay: Cell proliferation assay (ATPlite); format: cell-based; conditions: Homo sapiens, HCT-116; HCT116, Colon cancer (Table D); read-out: IC50 in cancer cell line
Description: as §1, §2

[6] = tested on: Prostate_PC3; assay: Cell proliferation assay (ATPlite); format: cell-based; conditions: PC-3, Prostate adenocarcinoma (Table D); read-out: IC50 in cancer cell line
Description: as §1, §2

[7] = both, Sprague Dawley, rat, in vivo, iv, 7 days
Description: 4. 7-day multiple dosing MTD in rats • a. Sprague Dawley, male and female, 220-250 gram • b. Dose, 25, 50, 100, 200 mg/kg/d) iv infusion 5 min • c. 6 per group (3 male and 3 female) • d. Blood and organs will be collected 2 hr after last dosing on Day 7 for hematology Compound Preparation.
(§7) Stock solution is diluted with 30% CAPTISOL® before use.

[8] = Pharmacokinetic study of compound 12 formulation in rats; format: in vivo; conditions: hydrochloride salt in 30% CAPTISOL, 20 and 60 mg/kg iv, FIG. 14
Description: (§3) Compound was administered via an intravenous (iv) infusion.
Rat: 20 mg/kg for 5 min i.v. infusion
(§4) Plasma samples were prepared by protein precipitation. An internal standard was added into plasma samples. […] The supernatant was then injected onto LC/MS/MS.
(§5) Samples were compared to standards made in plasma. These standards were prepared by serial dilution.

[9] = tested on: colon and breast cancer cells (HCT-116, SKBr3); assay: Induction of apoptosis (Caspase 3&7 activity); format: cell-based; conditions: HCT-116 and SKBr3, 24 hours; FIG. 4
[10] = tested on: HDAC in MDA-MB-468 breast cancer cell line; assay: Histone acetylation (Ac-H4, Ac-H3 accumulation) in cells; format: cell-based; conditions: FIG. 2
Excerpt: (§6) FIG. 2 illustrates inhibition of HDAC and EGFR in MDA-MB-468 breast cancer cell line: (a) Ac-H4 Accumulation, (b) Ac-H3 Accumulation, (c) EGFR inhibition.

[11] = Dilution study with D5W (precipitation, chemical stability); format: physicochemical; conditions: 60 mg/ml compound 12 with tartaric acid (1.3 eq) in 30% CAPTISOL, diluted in 1x water and 2x D5W
[12] = male, CD-1, mouse, in vivo, iv, 9 days
Description: Single dosing MTD in mice • a. CD-1 mice, male, 24-26 gram • b. Dosing at 0, 50, 100, 200, 400 mg/kg, iv infusion 2 min • c. 8 mice per group
as §7

[13] = tested on: HPAC pancreatic cancer cells; assay: HPAC pancreatic cancer tumor model; format: in vivo; conditions: 120 mg/kg in 30% CAPTISOL (iv/ip) daily; FIG. 12A
[14] = tested on: EGFR in MDA-MB-468 breast cancer cell line; assay: EGFR phosphorylation in cells; format: cell-based; conditions: FIG. 2
Excerpt: as §6

[15] = male, CD-1, mouse, in vivo, ip, 7 days
Description: 7-day-multiple dosing MTD in mice • a. CD-1 mice, male, 24-26 gram • b. Dosing at 0, 50, 100, 200 mg/kg/d ip • c. 6 mice per group • d. Blood and organs will be collected 2 hr after last dosing on Day 7 for hematology
as §7

[16] = Stability of CAPTISOL solution at room temperature; format: physicochemical; conditions: 25 mg/ml compound 12 with 8.6 mg tartaric acid in 30% CAPTISOL
[17] = tested on: Caki-1 Renal carcinoma; assay: Cell proliferation assay (ATPlite); format: cell-based; conditions: Homo sapiens; Caki-1, Renal carcinoma (Table D); read-out: IC50 in cancer cell line
Description: as §1, §2

[18] = Pharmacokinetic study of compound 12 in dogs; format: in vivo; conditions: 25 mg/kg tartrate salt in 30% CAPTISOL, FIG. 19
Description: as §3
Beagle: 25 mg/kg for 30 min i.v. infusion
as §4, §5

[19] = tested on: various cancer cell lines; assay: Cell proliferation assay, various cancer cell lines; format: cell-based; conditions: Table D, FIG. 3
Description: as §1
Cancer cell lines were plated at 5,000 to 10,000 per well in 96-well flatted bottomed plates with various concentration of compounds. The cells were incubated with compounds for 72 hours in the presence of 0.5% of fetal bovine serum. Growth inhibition was accessed by adenosine triphosphate (ATP) content assay using Perkin Elmer ATPlite kit. ATPlite is an ATP monitoring system based on firefly luciferase. Briefly, 25 μl of mammalian cell lysis solution was added to 50 μl of phenol red-free culture medium per well to lyse the cells and stabilize the ATP. 25 μl of substrate solution was then added to the well and subsequently the luminescence was measured.

[20] = Pharmacokinetic study of compound 12 formulation in mice (iv, ip); format: in vivo; conditions: hydrochloride salt
[21] = target: T1, human EGFR(His672-Ala1210) (Homo sapiens, UniProt P00533); assay: EGFR kinase assay (HTScan EGF Receptor Kinase Assay Kit); format: biochemical; conditions: FIG. 1
T1 construct: a construct expressing human EGFR(His672-Ala1210); GST (N); purchased Cell Signaling Technologies; host or cells: baculovirus expression system
Description: The ability of compounds to inhibit receptor kinase (EGFR) activity was assayed using HTScan™ EGF Receptor Kinase Assay Kits (Cell Signaling Technologies, Danvers, Mass.). […] The protein was purified by one-step affinity chromatography using glutathione-agarose.
Immediately transfer enzyme from −80° C. to ice. Allowed enzyme to thaw on ice. […] Returned immediately to ice. […] Incubated reaction plate at room temperature for 30 minutes. […] Added 100 μl/well primary antibody. Incubated at room temperature for 60 minutes. […] Added 100 μl/well diluted antibody. Incubated at room temperature for 30 minutes. […] Incubated at room temperature for 5 minutes.

[22] = both, Sprague Dawley, rat, in vivo, iv, 8 days
Description: Single dosing MTD in rats • a. Sprague Dawley, male and female, 240-260 gram • b. Dosing at 0, 25, 50, 100, 200 mg/kg, iv infusion 5 min • c. 6 rats per group (3 male and 3 female)
as §7

T1 sequence (P00533 672-1210): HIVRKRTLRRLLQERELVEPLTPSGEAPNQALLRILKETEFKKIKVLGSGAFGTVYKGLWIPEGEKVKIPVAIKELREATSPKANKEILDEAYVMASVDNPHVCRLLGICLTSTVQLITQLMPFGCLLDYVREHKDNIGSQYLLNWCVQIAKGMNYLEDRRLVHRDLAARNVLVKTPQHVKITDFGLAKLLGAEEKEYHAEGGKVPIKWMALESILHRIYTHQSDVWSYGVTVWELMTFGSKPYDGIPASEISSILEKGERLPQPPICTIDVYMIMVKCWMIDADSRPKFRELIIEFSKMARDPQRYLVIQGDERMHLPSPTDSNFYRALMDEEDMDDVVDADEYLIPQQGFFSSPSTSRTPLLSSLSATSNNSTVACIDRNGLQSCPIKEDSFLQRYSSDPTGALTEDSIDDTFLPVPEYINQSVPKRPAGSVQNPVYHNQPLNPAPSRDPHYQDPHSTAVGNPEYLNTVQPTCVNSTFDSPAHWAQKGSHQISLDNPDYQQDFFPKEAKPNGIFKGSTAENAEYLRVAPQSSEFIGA

## C#Cc1cccc(Nc2ncnc3cc(OCCOC)c(OCCOC)cc23)c1 [Erlotinib]
[1]
  effect on tumor growth / tumor size: did not significantly affect tumor size as compared to control
[2]
  IC50: ≤ 5 µM
[3]
  IC50: ≤ 5 µM
[4]
  IC50: ≤ 5 µM
[5]
  IC50: ≤ 5 µM
[6]
  IC50: ≤ 5 µM

## C#Cc1cccc(Nc2ncnc3cc(OC)c(OCCCCCCC(=O)NO)cc23)c1 [Compound 12, 7-(4-(3-ethynylphenylamino)-7-methoxyquinazolin-6-yloxy)-N-hydroxyheptanamide]
[7]
  dose without significant change in body weight or food consumption: up to 100 mg/kg
[8]
  dose proportionality of plasma concentration: proportional to the dose
[9]
  cell apoptosis measured by increased Caspase 3&7 activity: 4-11 times
[10]
  inhibition of histone acetylation compared with SAHA: improvement in inhibition of histone acetylation
[1]
  effect on tumor growth / tumor size: attenuated tumor growth
[11]
  stability of diluted solution at room temperature: > 12 h
[12]
  dose without significant change in body weight: up to 200 mg/kg
[13]
  attenuation of tumor growth: greater attenuation of tumor growth than either erlotinib (po) or vehicle
[14]
  inhibition of EGFR phosphorylation compared with Erlotinib: improvement in inhibition of histone acetylation and EGFR phosphorylation
[15]
  dose without significant change in body weight: up to 100 mg/kg
[16]
  stability of solution: stable at room temperature
[17]
  IC50: ≤ 0.05 µM
[18]
  concentration in plasma in 4 hours: less than 10 mg/ml
[19]
  anti-proliferative activity compared with Erlotinib, SAHA and their combination: more active than Erlotinib and SAHA
[20]; 20 and 60 mg/kg, iv and ip
  dose proportionality of concentration: dose proportional when administered intravenously but not intraperitoneally
[20]; lung, colon, plasma
  half-life in tissue versus plasma: greater than that in plasma
[21]
  activity in EGFR enzyme assay compared with erlotinib: more active than erlotinib and SAHA
[22]
  dose without significant change in body weight: up to 200 mg/kg
